Test results published in BindingDB's records for doi:10.1016/s0960-894x(00)00605-3 (Merck Research Laboratories, 2001).

Molecular target: histone deacetylase enzyme from partially purified extracts of Eimeria tenella
Experiment: ChEBML_79057
Description: Inhibitory activity against histone deacetylase enzyme derived from partially purified extracts of Eimeria tenella protozoa using [3H]11 as radioligand

| IC50 | SMILES |
| --- | --- |
| 2500 nM | CCC(=O)CCCCC[C@@H]1NC(=O)[C@H]2CCCCN2C(=O)[C@H]([C@@H](C)CC)NC(=O)[C@H](CC2CN(OC)c3ccc(Br)cc32)NC1=O (stereo not given in full) |
| 4 nM | CCCn1cc(C(O)c2nc(O)c(CCCCCC(=O)CC)[nH]c(O)c3n(c(O)c([C@@H](C)CC)[nH]c2=O)CCCC3)c2ccccc21 (stereo not given in full) |
| 30 nM | CCC(=O)CCCCCc1[nH]c(O)c2n(c(O)c([C@@H](C)CC)[nH]c(=O)c(C(O)c3ccc4c(ccn4C)c3)nc1O)CCCC2 (stereo not given in full) |
| 4 nM | CCC(=O)CCCCC[C@@H]1NC(=O)[C@H]2CCCCN2C(=O)[C@H]([C@@H](C)CC)NC(=O)[C@H](c2cn(OC)c3ccccc3c2=O)NC1=O |
| 23 nM | CCC(=O)CCCCCc1[nH]c(O)c2n(c(O)c([C@@H](C)CC)[nH]c(=O)c(C(O)c3c[nH]c4ccccc34)nc1O)CCCC2 (stereo not given in full) |
| 100 nM | CCC(=O)CCCCC[C@@H]1NC(=O)[C@H]2CCCCN2C(=O)[C@H]([C@@H](C)CC)NC(=O)[C@H](Cc2cn(CC)c3ccccc23)NC1=O |
| 11 nM | CCC(=O)CCCCC[C@@H]1NC(=O)[C@H]2CCCCN2C(=O)[C@H]([C@@H](C)CC)NC(=O)[C@H](c2cn(CC)c3ccccc3c2=O)NC1=O |
| 5 nM | CCC(=O)CCCCC[C@@H]1NC(=O)[C@H]2CCCCN2C(=O)[C@H]([C@@H](C)CC)NC(=O)[C@H](Cc2cn(C)c3ccccc23)NC1=O |
| 3 nM | CCC(=O)CCCCC[C@@H]1NC(=O)[C@H]2CCCCN2C(=O)[C@H]([C@@H](C)CC)NC(=O)[C@H](CCOc2ccccc2)NC1=O |
| 33 nM | CCC(=O)CCCCCc1[nH]c(O)c2n(c(O)c([C@@H](C)CC)[nH]c(=O)c(CC(O)c3ccccc3[N+](=O)[O-])nc1O)CCCC2 (stereo not given in full) |
| 175 nM | CCC(=O)CCCCC[C@@H]1NC(=O)[C@H]2CCCCN2C(=O)[C@H]([C@@H](C)CC)NC(=O)[C@H](Cc2cn(OC)c3ccc(Br)cc23)NC1=O |
| 1 nM | CCC(=O)CCCCC[C@@H]1NC(=O)[C@H]2CCCCN2C(=O)[C@H]([C@@H](C)CC)NC(=O)[C@H](Cc2c[nH]c3ccccc23)NC1=O |
| 25 nM | CCC(=O)CCCCC[C@@H]1NC(=O)[C@H]2CCCCN2C(=O)[C@H]([C@@H](C)CC)NC(=O)[C@H](Cc2c(-c3ccc4c(ccn4C)c3)[nH]c3ccccc23)NC1=O |
| 200 nM | CCC(=O)CCCCC[C@@H]1NC(=O)[C@H]2CCCCN2C(=O)[C@H]([C@@H](C)CC)NC(=O)[C@H](Cc2c(Br)[nH]c3ccccc23)NC1=O |
| 100 nM | CCC(=O)CCCCC[C@@H]1NC(=O)[C@H]2CCCCN2C(=O)[C@H]([C@@H](C)CC)NC(=O)[C@H](Cc2cn(CC(=O)O)c3ccccc23)NC1=O |

| SMILES | IC50 |
| --- | --- |
| CCC(=O)CCCCC[C@@H]1NC(=O)[C@H]2CCCCN2C(=O)[C@H]([C@@H](C)CC)NC(=O)[C@H](c2cnc3ccccc3c2N2CCCCC2)NC1=O | 0.8 nM |
| CCC(=O)CCCCC[C@@H]1NC(=O)[C@H]2CCCCN2C(=O)[C@H]([C@@H](C)CC)NC(=O)[C@H](c2cnc3ccccc3c2Cl)NC1=O | 2 nM |

Molecular target: not listed separately
Experiment: Inhibitory activity against histone deacetylase enzyme derived from partially purified extracts of Eimeria tenella protozoa using [3H]11 as radioligand

| SMILES | IC50 |
| --- | --- |
| CCC(=O)CCCCC[C@@H]1NC(=O)[C@H]2CCCCN2C(=O)[C@H]([C@@H](C)CC)NC(=O)[C@H](C(=O)c2c[nH]c3ccccc23)NC1=O | 10 nM |

Molecular target: Histone deacetylase (Eimeria tenella)
Experiment: Binding affinity towards HDAC enzyme derived from Eimeria tenella protozoa

| SMILES | Ki |
| --- | --- |
| CCC(=O)CCCCC[C@@H]1NC(=O)[C@H]2CCCCN2C(=O)[C@H]([C@@H](C)CC)NC(=O)[C@H](c2cnc3ccccc3c2N2CCCCC2)NC1=O | 20 nM |
| CCC(=O)CCCCC[C@@H]1NC(=O)[C@H]2CCCCN2C(=O)[C@H]([C@@H](C)CC)NC(=O)[C@H](c2cn(OC)c3ccccc3c2=O)NC1=O | 30 nM |
| CCC(=O)CCCCC[C@@H]1NC(=O)[C@H]2CCCCN2C(=O)[C@H]([C@@H](C)CC)NC(=O)[C@H](c2cn(CC)c3ccccc3c2=O)NC1=O | 70 nM |
| CCC(=O)CCCCC[C@@H]1NC(=O)[C@H]2CCCCN2C(=O)[C@H]([C@@H](C)CC)NC(=O)[C@H](c2cnc3ccccc3c2O)NC1=O | 10 nM |
| CCC(=O)CCCCC[C@@H]1NC(=O)[C@H]2CCCCN2C(=O)[C@H]([C@@H](C)CC)NC(=O)[C@H](c2cnc3ccccc3c2Cl)NC1=O | 50 nM |
| CCCCCCCCCCC(=O)C[C@@H]1NC(=O)[C@H](CCCCCC(=O)CC)NC(=O)[C@H]2CCCCN2C(=O)[C@H]([C@@H](C)CC)NC1=O | > 1000 nM |
| CCC(=O)CCCCC[C@@H]1NC(=O)[C@H]2CCCCN2C(=O)[C@H]([C@@H](C)CC)NC(=O)[C@@H](c2cnc3ccccc3c2O)NC1=O | 250 nM |
